Test results as given in US8168651B2, “Protein kinase modulators” (Cylene Pharmaceuticals, Inc., priority 2008, dated 2012).

How the values were obtained:
Assay in all cases: Standardized radiometric kinase assays, percentage of activity at 0.5 μM;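 note: Read-out is ³³P-labelled substrate protein phosphorylated by each kinase, captured on filters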
[1] = biological target: each individual kinase of the panel (Homo sapiens, UniProt O14920)
[2] = biological target: each individual kinase of the panel (Homo sapiens, UniProt O75116)
[3] = biological target: each individual kinase of the panel (Homo sapiens, UniProt O96017)
[4] = biological target: each individual kinase of the panel (Homo sapiens, UniProt O96017, R145W)
[5] = biological target: each individual kinase of the panel (Homo sapiens, UniProt P00519, T315I)
[6] = biological target: each individual kinase of the panel (Homo sapiens, UniProt P05771)
Chain of each individual kinase of the panel (Homo sapiens, UniProt P05771) (P05771 2-671 limits assumed): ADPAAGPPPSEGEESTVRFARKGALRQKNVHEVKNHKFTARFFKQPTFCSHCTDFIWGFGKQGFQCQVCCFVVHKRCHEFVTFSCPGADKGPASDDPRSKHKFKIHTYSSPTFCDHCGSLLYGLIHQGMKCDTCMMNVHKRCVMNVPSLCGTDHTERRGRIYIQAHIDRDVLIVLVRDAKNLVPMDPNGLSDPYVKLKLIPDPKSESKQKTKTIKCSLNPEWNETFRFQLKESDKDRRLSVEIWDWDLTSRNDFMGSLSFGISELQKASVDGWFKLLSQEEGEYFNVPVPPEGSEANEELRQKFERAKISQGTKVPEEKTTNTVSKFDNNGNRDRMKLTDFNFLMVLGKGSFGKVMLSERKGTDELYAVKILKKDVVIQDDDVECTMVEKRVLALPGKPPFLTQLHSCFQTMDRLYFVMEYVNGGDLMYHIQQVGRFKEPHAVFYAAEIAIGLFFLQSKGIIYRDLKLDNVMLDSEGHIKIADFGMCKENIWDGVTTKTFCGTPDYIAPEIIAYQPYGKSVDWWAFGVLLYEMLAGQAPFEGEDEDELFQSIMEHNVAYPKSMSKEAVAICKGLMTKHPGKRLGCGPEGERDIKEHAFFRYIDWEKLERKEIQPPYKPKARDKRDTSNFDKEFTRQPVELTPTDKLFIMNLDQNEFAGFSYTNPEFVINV

[7] = biological target: each individual kinase of the panel (Homo sapiens, UniProt P21709)
Chain of each individual kinase of the panel (Homo sapiens, UniProt P21709) (P21709 26-976 limits assumed): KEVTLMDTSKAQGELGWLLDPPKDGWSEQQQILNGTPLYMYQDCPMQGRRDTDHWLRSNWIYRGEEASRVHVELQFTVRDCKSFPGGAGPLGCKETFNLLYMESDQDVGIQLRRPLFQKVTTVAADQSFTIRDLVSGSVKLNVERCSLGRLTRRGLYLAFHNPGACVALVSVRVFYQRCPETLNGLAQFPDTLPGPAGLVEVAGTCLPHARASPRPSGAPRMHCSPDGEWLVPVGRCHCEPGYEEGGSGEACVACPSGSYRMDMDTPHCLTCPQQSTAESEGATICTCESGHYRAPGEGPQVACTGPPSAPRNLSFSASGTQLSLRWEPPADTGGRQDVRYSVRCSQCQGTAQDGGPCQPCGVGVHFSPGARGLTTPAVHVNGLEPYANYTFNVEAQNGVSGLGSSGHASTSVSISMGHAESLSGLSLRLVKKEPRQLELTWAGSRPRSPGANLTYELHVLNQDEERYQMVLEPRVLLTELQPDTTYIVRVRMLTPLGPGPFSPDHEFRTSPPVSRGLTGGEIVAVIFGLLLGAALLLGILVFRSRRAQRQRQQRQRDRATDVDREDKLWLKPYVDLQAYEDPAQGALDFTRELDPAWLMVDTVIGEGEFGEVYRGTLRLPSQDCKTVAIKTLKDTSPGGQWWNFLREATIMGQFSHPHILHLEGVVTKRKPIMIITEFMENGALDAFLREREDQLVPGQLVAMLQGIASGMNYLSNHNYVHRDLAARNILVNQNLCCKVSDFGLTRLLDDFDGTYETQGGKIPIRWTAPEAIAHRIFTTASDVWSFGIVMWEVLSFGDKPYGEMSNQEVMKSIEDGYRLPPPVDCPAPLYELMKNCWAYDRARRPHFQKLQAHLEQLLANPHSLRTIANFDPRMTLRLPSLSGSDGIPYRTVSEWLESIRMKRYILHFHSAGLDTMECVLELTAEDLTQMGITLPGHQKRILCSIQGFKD

[8] = biological target: each individual kinase of the panel (Homo sapiens, UniProt P45984)
[9] = biological target: each individual kinase of the panel (Homo sapiens, UniProt P48730)
[10] = biological target: each individual kinase of the panel (Homo sapiens, UniProt P51617)
[11] = biological target: each individual kinase of the panel (Homo sapiens, UniProt Q05655)
[12] = biological target: each individual kinase of the panel (Homo sapiens, UniProt Q08881)
[13] = biological target: each individual kinase of the panel (Homo sapiens, UniProt Q09013)
[14] = biological target: each individual kinase of the panel (Homo sapiens, UniProt Q13237)
Chain of each individual kinase of the panel (Homo sapiens, UniProt Q13237) (Q13237 2-762 limits assumed): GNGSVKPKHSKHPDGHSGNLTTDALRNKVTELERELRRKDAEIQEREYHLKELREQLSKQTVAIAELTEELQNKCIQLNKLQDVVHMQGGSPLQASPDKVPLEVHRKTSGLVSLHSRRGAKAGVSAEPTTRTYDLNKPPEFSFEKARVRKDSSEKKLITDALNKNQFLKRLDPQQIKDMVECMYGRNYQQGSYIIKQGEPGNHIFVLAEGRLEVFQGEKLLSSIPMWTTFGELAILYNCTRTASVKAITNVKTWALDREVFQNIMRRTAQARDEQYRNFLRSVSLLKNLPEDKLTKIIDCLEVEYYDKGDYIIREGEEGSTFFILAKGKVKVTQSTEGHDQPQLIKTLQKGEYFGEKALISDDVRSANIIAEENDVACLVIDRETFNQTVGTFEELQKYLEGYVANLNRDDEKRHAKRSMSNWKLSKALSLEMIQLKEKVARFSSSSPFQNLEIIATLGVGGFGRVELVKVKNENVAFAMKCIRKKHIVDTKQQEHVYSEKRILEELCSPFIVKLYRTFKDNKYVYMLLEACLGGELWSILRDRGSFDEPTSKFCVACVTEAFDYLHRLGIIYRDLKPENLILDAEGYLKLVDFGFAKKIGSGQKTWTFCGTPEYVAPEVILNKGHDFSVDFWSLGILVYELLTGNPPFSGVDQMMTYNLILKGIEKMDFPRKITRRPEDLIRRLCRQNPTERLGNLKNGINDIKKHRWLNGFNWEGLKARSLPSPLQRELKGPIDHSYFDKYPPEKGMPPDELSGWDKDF

[15] = biological target: each individual kinase of the panel (Homo sapiens, UniProt Q13555)
[16] = biological target: each individual kinase of the panel (Homo sapiens, UniProt Q15139)
[17] = biological target: each individual kinase of the panel (Homo sapiens, UniProt Q15759)
[18] = biological target: each individual kinase of the panel (Homo sapiens, UniProt Q15831)
[19] = biological target: each individual kinase of the panel (Homo sapiens, UniProt Q16513)
[20] = biological target: each individual kinase of the panel (Homo sapiens, UniProt Q7KZI7)
[21] = biological target: each individual kinase of the panel (Homo sapiens, UniProt Q86UE8)
[22] = biological target: each individual kinase of the panel (Homo sapiens, UniProt Q8NG66)
[23] = biological target: each individual kinase of the panel (Homo sapiens, UniProt Q8TF76)
[24] = biological target: each individual kinase of the panel (Homo sapiens, UniProt Q96PF2)
[25] = biological target: each individual kinase of the panel (Homo sapiens, UniProt Q9BXA7)
[26] = biological target: each individual kinase of the panel (Homo sapiens, UniProt Q9BYP7)
[27] = biological target: each individual kinase of the panel (Homo sapiens, UniProt Q9H2K8)
[28] = biological target: each individual kinase of the panel (Homo sapiens, UniProt Q9UIK4)
[29] = biological target: each individual kinase of the panel (Homo sapiens, UniProt Q9UPE1)
[30] = biological target: each individual kinase of the panel (Homo sapiens, UniProt Q9Y243)
Chain of each individual kinase of the panel (Homo sapiens, UniProt Q9Y243) (Q9Y243 2-479 limits assumed): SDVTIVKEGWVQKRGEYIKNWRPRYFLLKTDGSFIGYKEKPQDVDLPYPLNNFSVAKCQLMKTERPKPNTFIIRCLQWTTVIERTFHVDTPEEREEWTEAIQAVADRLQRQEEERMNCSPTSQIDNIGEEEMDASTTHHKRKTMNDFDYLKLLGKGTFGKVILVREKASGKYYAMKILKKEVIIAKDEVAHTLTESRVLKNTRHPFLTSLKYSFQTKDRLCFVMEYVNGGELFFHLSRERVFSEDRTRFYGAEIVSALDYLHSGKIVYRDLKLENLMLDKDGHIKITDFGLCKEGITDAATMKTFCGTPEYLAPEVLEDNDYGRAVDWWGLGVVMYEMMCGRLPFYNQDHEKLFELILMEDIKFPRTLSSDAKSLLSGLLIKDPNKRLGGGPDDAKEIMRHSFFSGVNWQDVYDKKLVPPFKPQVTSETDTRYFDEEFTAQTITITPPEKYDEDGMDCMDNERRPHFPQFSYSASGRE

[31] = biological target: each individual kinase of the panel (Homo sapiens, UniProt Q9Y5S2)

C#Cc1cccc(Nc2nc3cc(C(=O)O)ccc3c3cncnc23)c1 [drawing 1135]
IKK beta percentage of activity [1]: 5%
ROCK-II percentage of activity [2]: −4%
CHK2 percentage of activity [3]: 5%
CHK2(R145W) (h) percentage of activity [4]: 0%
ABL1(T3151) percentage of activity [5]: −7%
PRKCB1 percentage of activity [6]: 0%
EPHA1 percentage of activity [7]: −6%
JNK2A2 percentage of activity [8]: −7%
CK1 delta percentage of activity [9]: −4%
IRAK1 percentage of activity [10]: 4%
PRKCD percentage of activity [11]: 7%
ITK;Itk(h) percentage of activity [12]: 0%
DMPK percentage of activity [13]: 4%
PRKG2 percentage of activity [14]: 2%
CAMK2G percentage of activity [15]: 36%
PRKCM percentage of activity [16]: −4%
p38-beta percentage of activity [17]: 5%
LKB1 percentage of activity [18]: −2%
PRK2 percentage of activity [19]: 3%
PAR-1B alpha percentage of activity [20]: 7%
TLK2 percentage of activity [21]: 8%
NEK11 percentage of activity [22]: −2%
GSG2 percentage of activity [23]: 4%
TSSK2 percentage of activity [24]: −9%
TSSK1 percentage of activity [25]: −18%
WNK3 percentage of activity [26]: −17%
TAO3 percentage of activity [27]: 22%
DAPK2 percentage of activity [28]: 91%
MSSK1 percentage of activity [29]: −3%
AKT3 percentage of activity [30]: 0%
MRCKB percentage of activity [31]: 0%
